Measured values from patent US7456216B2, “Methods for the preparation and formulation of l-carnitine valproate salts” (BioLink Life Sciences, Inc., priority 2007, dated 2008).

Experiments:
[1] = Storage in ambient atmosphere, gross weight monitored over 6 days (hygroscopicity); type: physicochemical; details: for Conclusion & Observations (hygroscopicity): 6 days in ambient atmosphere; for Net weight, final / Change of net weight, final vs initial: after 6 days in ambient atmosphere; for Net weight, initial: weighed portion before exposure to ambient atmosphere
Method: The effects of storage of the L-carnitine valproate salts of Examples 1 and 2 in ambient atmospheres were monitored for 6 days. For comparison, L-carnitine (Sigma Aldrich Chemical Co.), sodium valproate (Sigma Aldrich Chemical Co.), and divalproex sodium were also monitored in the same manner. The experiment was performed by weighing portions of each compound into a tared glass container and periodically monitoring the gross weight of the compound+container over a 6 day period.

[2] = conventional L-carnitine; cited from earlier work
[3] = cited from earlier work
[4] = Storage in a closed and sealed container (stability, odor); type: physicochemical; details: for Odor detected during storage: trimethylamine odor indicates degradation
Text: L-Carnitine magnesium salts of the present invention are stable when stored in a closed and sealed container. […] Both L-carnitine calcium valproate and L-carnitine magnesium valproate are converted to the corresponding hydrates by exposure to water vapor in the atmosphere. Each hydrate has a characteristic melting point.

[5] = Solubility in water or aqueous solutions; type: physicochemical
deacetylase = details: dose between 20 and 40 mg/kg; patients with cervical cancer; cited from earlier work

Compound	Conclusion & Observations (hygroscopicity) [1]	Net weight, final [1]	Net weight, initial [1]	other results
CCCC(CCC)C(=O)O [Divalproex sodium, reference compound]	Mass of the material did not change. Material is not hygroscopic.	100 mg	100 mg	–
C[N+](C)(C)C[C@H](O)CC(=O)[O-] [L-Carnitine, L-(−)-Carnitine]	Material is hygroscopic.	>227 mg	208 mg	Bioavailability of L-carnitine [2]: 15-20 % of the administered dose
CCCC(CCC)C(=O)[O-].[Na+] [Sodium valproate, reference compound]	very hygroscopic.	–	–	–
CCCC(CCC)C(=O)O [Valproic acid, 2-propylpentanoic acid]	–	–	–	Solubility in water [3]: very slightly soluble in water
L-carnitine calcium valproate	Appearance and mobility of the material did not change. Material absorbed water	202 mg	194 mg	Change of net weight, final vs initial [1]: (+5%); Stability during storage [4]: stable; Odor detected during storage [4]: no odor is detected
L-carnitine magnesium valproate	Material absorbed water and was converted to a hydrate, which is further	163 mg	142 mg	Change of net weight, final vs initial [1]: (+15%); Stability during storage [4]: stable; Odor detected during storage [4]: a slight odor of trimethylamine is detected; Solubility in water or aqueous solutions [5]: readily dissolved in water or aqueous solutions
magnesium 2-propylvalerate [magnesium valproate]	–	–	–	Deacetylase activity in tumor tissues (deacetylase): inhibits deacetylase activity and hyperacetylates histones in tumor tissues
